# Results published in ChEMBL document CHEMBL5137011, “Semisynthetic pleuromutilin antimicrobials with therapeutic potential against methicillin-resistant Staphylococcus aureus by targeting 50S ribosomal subunit” (Eur J Med Chem, 2022).
# Key:
# Staphylococcus aureus [1] = test: Antibacterial activity against Staphylococcus aureus SA17 assessed as inhibition of bacterial growth incubated for 16 hrs by CLSI based broth microdilution method; type: functional
# Staphylococcus aureus [2] = test: Antibacterial activity against Staphylococcus aureus ATCC 29213 assessed as inhibition of bacterial growth incubated for 16 hrs by CLSI based broth microdilution method; type: functional
# Staphylococcus aureus [3] = test: Antibacterial activity against Staphylococcus aureus 144 assessed as inhibition of bacterial growth incubated for 16 hrs by CLSI based broth microdilution method; type: functional
# Staphylococcus aureus [4] = test: Antibacterial activity against methicillin-resistant Staphylococcus aureus ATCC 43300 assessed as inhibition of bacterial growth incubated for 16 hrs by CLSI based broth microdilution method; type: functional
# RAW264.7 = test: Cytotoxicity against mouse RAW264.7 cells assessed as reduction in cell viability at 8 ug/ml incubated for 16 hrs by MTT assay; type: toxicity, cell-based; conditions: raw264.7, 16 h, dose 8 µg/ml
# 16HBE14o- [5] = test: Cytotoxicity against human 16HBE14o- cells assessed as reduction in cell viability at 8 ug/ml incubated for 16 hrs by MTT assay; type: toxicity, cell-based; conditions: dose 8 µg/ml
# Staphylococcus aureus [6] = test: Antibacterial activity against Staphylococcus aureus AD3 assessed as inhibition of bacterial growth incubated for 16 hrs by CLSI based broth microdilution method; type: functional
# 16HBE14o- [7] = test: Cytotoxicity against human 16HBE14o- cells assessed as reduction in cell viability at 8 ug/ml incubated for 16 hrs by MTT assay relative to control; type: toxicity, cell-based; conditions: at 8 µg/mL
# Bacterial 70S ribosome = test: Binding affinity to Staphylococcus aureus ATCC 43300 50S ribosomal subunit assessed as equilibrium dissociation constant by surface plasmon resonance analysis; type: subcellular
# [8] = target: Bacterial 70S ribosome (Bacteria) (UniProt P0A7V0+P60723+P0AG67+P0A7R5+P0A7R9+P0A7S3+P0A7S9+P0AG59+P0ADZ4+P0A7T3+P0AG63+P0A7T7+P0A7U3+P0A7U7+P68679+P0A7V3+P0A7V8+P0A7W1+P02358+P02359+P0A7W7+P0A7X3+P0A7J3+P0A7J7+P0AA10+P0ADY3+P02413+P0ADY7+P0AG44+P0C018+P0A7K6+P0A7L0+P0A7L3+P0AG48+P61175+P0ADZ0+P60624+P68919+P0A7L8+P0A7M2+P0A7M6+P60422+P0AG51+P0A7N1+P0A7M9+P0A7N4+P0A7N9+P0A7P5+P0A7Q1+Q2EEQ2+P0A7Q6+P60438+P62399+P0AG55+P0A7K2); test: Binding affinity to Staphylococcus aureus ATCC 43300 50S ribosomal subunit assessed as association rate constant by surface plasmon resonance analysis; type: subcellular
# Staphylococcus aureus [9] = test: Antibacterial activity against methicillin-resistant Staphylococcus aureus ATCC 43300 infected in ICR/Swiss mouse systemic infection model assessed as survival rate at 30 mg/kg, iv administered as bolus injection 1 hr post infection measured twice daily after 2 to 7 days; type: functional; conditions: time 2-7 day
# Staphylococcus aureus [10] = test: Antibacterial activity against methicillin-resistant Staphylococcus aureus ATCC 43300 infected in ICR/Swiss mouse […] thigh infection model assessed as log reduction in bacterial load in thigh at 20 mg/kg, iv administered as bolus injection measured after 24 hrs; type: functional
# [11] = Clearance in mouse assessed as hepatic blood flow at 10 mg/kg, iv administered as bolus infection measured upto 24 hrs by LC-MS analysis; type: ADME, organism-based; conditions: in vivo
# Staphylococcus aureus [12] = test: Antibacterial activity against methicillin-resistant Staphylococcus aureus ATCC 43300 assessed as log reduction in colony forming unit at 4 times MIC measured after 3 hrs by time kill assay; type: functional
# Staphylococcus aureus [13] = test: Antibacterial activity against methicillin-resistant Staphylococcus aureus ATCC 43300 assessed as log reduction in colony forming unit at 4 times MIC measured after 24 hrs by time kill assay; type: functional
# [14] = AUC(0 to infinity) in mouse at 10 mg/kg, iv administered as bolus injection measured upto 24 hrs by LC-MS analysis; type: ADME, organism-based; parameters: time < 24 hrs, dose 10 mg/kg, route iv; conditions: in vivo
# Staphylococcus aureus [15] = test: Antibacterial activity against methicillin-resistant Staphylococcus aureus ATCC 43300 infected in ICR/Swiss mouse systemic infection model assessed as survival rate at 30 mg/kg, iv administered as bolus injection 1 hr post infection measured twice daily after 3 to 7 days; type: functional; conditions: time 3-7 day
# [16] = Half life in mouse at 10 mg/kg, iv administered as bolus infection measured upto 24 hrs by LC-MS analysis; type: ADME, organism-based; conditions: in vivo
# [17] = AUC(0 to t) in mouse at 10 mg/kg, iv administered as bolus injection measured upto 24 hrs by LC-MS analysis; type: ADME, organism-based; parameters: dose 10 mg/kg, time < 24 hrs, route iv; conditions: in vivo
# [18] = MRT in mouse at 10 mg/kg, iv administered as bolus infection measured upto 24 hrs by LC-MS analysis; type: ADME, organism-based; conditions: in vivo
# [19] = Clearance in mouse at 10 mg/kg, iv administered as bolus infection measured upto 24 hrs by LC-MS analysis; type: ADME, organism-based; conditions: in vivo
compound,measurement,setting,value
C=C[C@]1(C)C[C@@H](OC(=O)CSc2nnc(-c3ccccc3Cl)[nH]2)[C@]2(C)[C@H](C)CC[C@]3(CCC(=O)[C@H]32)[C@@H](C)[C@@H]1O,MIC,Staphylococcus aureus [1],0.5 µg/mL
same,MIC,Staphylococcus aureus [2],0.5 µg/mL
same,MIC,Staphylococcus aureus [3],0.5 µg/mL
same,MIC,Staphylococcus aureus [4],0.125 µg/mL
same,Activity,RAW264.7,Non-Toxic
same,Activity,16HBE14o- [5],Non-Toxic
same,MIC,Staphylococcus aureus [6],0.125 µg/mL
C=C[C@]1(C)C[C@@H](OC(=O)CSc2nnc(-c3cccc(C(F)(F)F)c3)[nH]2)[C@]2(C)[C@H](C)CC[C@]3(CCC(=O)[C@H]32)[C@@H](C)[C@@H]1O,MIC,Staphylococcus aureus [1],> 32 µg/mL
same,Activity,16HBE14o- [7],> 50%
same,MIC,Staphylococcus aureus [2],2 µg/mL
same,MIC,Staphylococcus aureus [3],> 32 µg/mL
same,MIC,Staphylococcus aureus [4],1 µg/mL
same,Activity,RAW264.7,Non-Toxic
same,MIC,Staphylococcus aureus [6],0.25 µg/mL
C=C[C@]1(C)C[C@@H](OC(=O)CSc2nnc(-c3cccc(OC)c3)[nH]2)[C@]2(C)[C@H](C)CC[C@]3(CCC(=O)[C@H]32)[C@@H](C)[C@@H]1O,MIC,Staphylococcus aureus [1],0.5 µg/mL
same,MIC,Staphylococcus aureus [2],0.125 µg/mL
same,MIC,Staphylococcus aureus [3],0.5 µg/mL
same,MIC,Staphylococcus aureus [4],0.125 µg/mL
same,Activity,RAW264.7,Non-Toxic
same,Activity,16HBE14o- [5],Non-Toxic
same,MIC,Staphylococcus aureus [6],0.0625 µg/mL
C=C[C@]1(C)C[C@@H](OC(=O)CSCCN(CC)CC)[C@]2(C)[C@H](C)CC[C@]3(CCC(=O)[C@H]32)[C@@H](C)[C@@H]1O [TIAMULIN],Kd,Bacterial 70S ribosome,36.3 nM
same,Ka,[8],1.22 10^2/Ms
same,MIC,Staphylococcus aureus [1],1 µg/mL
same,MIC,Staphylococcus aureus [2],0.5 µg/mL
same,MIC,Staphylococcus aureus [3],1 µg/mL
same,MIC,Staphylococcus aureus [4],0.5 µg/mL
same,survival at 30 mg/kg,Staphylococcus aureus [9],30%
same,Activity,Staphylococcus aureus [10],-1.1 log10CFU/ml
same,MIC,Staphylococcus aureus [6],0.5 µg/mL
C=C[C@]1(C)C[C@@H](OC(=O)CSc2nnc(-c3ccc([N+](=O)[O-])cc3)[nH]2)[C@]2(C)[C@H](C)CC[C@]3(CCC(=O)[C@H]32)[C@@H](C)[C@@H]1O,MIC,Staphylococcus aureus [1],0.5 µg/mL
same,MIC,Staphylococcus aureus [2],0.25 µg/mL
same,MIC,Staphylococcus aureus [3],2 µg/mL
same,MIC,Staphylococcus aureus [4],0.125 µg/mL
same,Activity,RAW264.7,Non-Toxic
same,Activity,16HBE14o- [5],Non-Toxic
same,MIC,Staphylococcus aureus [6],0.0625 µg/mL
C=C[C@]1(C)C[C@@H](OC(=O)CSc2nnc(-c3ccc(F)cc3)[nH]2)[C@]2(C)[C@H](C)CC[C@]3(CCC(=O)[C@H]32)[C@@H](C)[C@@H]1O,MIC,Staphylococcus aureus [1],1 µg/mL
same,MIC,Staphylococcus aureus [2],0.125 µg/mL
same,MIC,Staphylococcus aureus [3],1 µg/mL
same,MIC,Staphylococcus aureus [4],0.125 µg/mL
same,Activity,RAW264.7,Non-Toxic
same,Activity,16HBE14o- [5],Non-Toxic
same,MIC,Staphylococcus aureus [6],0.0625 µg/mL
C=C[C@]1(C)C[C@@H](OC(=O)CSc2nnc(-c3cccc(F)c3)[nH]2)[C@]2(C)[C@H](C)CC[C@]3(CCC(=O)[C@H]32)[C@@H](C)[C@@H]1O,MIC,Staphylococcus aureus [1],0.5 µg/mL
same,MIC,Staphylococcus aureus [2],0.125 µg/mL
same,MIC,Staphylococcus aureus [3],1 µg/mL
same,MIC,Staphylococcus aureus [4],0.125 µg/mL
same,Activity,RAW264.7,Non-Toxic
same,Activity,16HBE14o- [5],Non-Toxic
same,MIC,Staphylococcus aureus [6],0.0625 µg/mL
C=C[C@]1(C)C[C@@H](OC(=O)CSc2nnc(-c3ccccc3F)[nH]2)[C@]2(C)[C@H](C)CC[C@]3(CCC(=O)[C@H]32)[C@@H](C)[C@@H]1O,QH,[11],90 mL/min/kg
same,Kd,Bacterial 70S ribosome,1950 nM
same,Ka,[8],1.04 10^3/M.s
same,Activity,Staphylococcus aureus [12],-1.66 log10CFU/ml
same,MIC,Staphylococcus aureus [1],0.125 µg/mL
same,Activity,Staphylococcus aureus [13],-7.7 log10CFU/ml
same,AUC(0-inf),[14],1840 ng·h/mL
same,MIC,Staphylococcus aureus [2],0.125 µg/mL
same,survival at 30 mg/kg,Staphylococcus aureus [15],50%
same,MIC,Staphylococcus aureus [3],0.25 µg/mL
same,MIC,Staphylococcus aureus [4],0.0625 µg/mL
same,t1/2,[16],22.2 min
same,Activity,Staphylococcus aureus [10],-1.53 log10CFU/ml
same,Activity,RAW264.7,Non-Toxic
same,AUC(0-t) at 24 h,[17],1830 ng·h/mL
same,Activity,16HBE14o- [5],Non-Toxic
same,MRT,[18],93.6 min
same,clearance,[19],90.5 mL/min/kg
same,MIC,Staphylococcus aureus [6],0.03 µg/mL
C=C[C@]1(C)C[C@@H](OC(=O)CSc2nnc(-c3ccc(Cl)cc3)[nH]2)[C@]2(C)[C@H](C)CC[C@]3(CCC(=O)[C@H]32)[C@@H](C)[C@@H]1O,MIC,Staphylococcus aureus [1],0.5 µg/mL
same,MIC,Staphylococcus aureus [2],0.0625 µg/mL
same,MIC,Staphylococcus aureus [3],1 µg/mL
same,MIC,Staphylococcus aureus [4],0.125 µg/mL
same,Activity,RAW264.7,Non-Toxic
same,Activity,16HBE14o- [5],Non-Toxic
same,MIC,Staphylococcus aureus [6],0.125 µg/mL
